# Reference: patent US6380277B1, “Iodonium salt photoinitiators containing urethane groups for cationic curing” (Goldschmidt AG, priority 1999, dated 2002)
# Legend:
# [1] = Hydrolytic stability: time to formation of visible precipitates or crystals; format: physicochemical; settings: time to formation of visible precipitates or crystals of hydrolytic cleavage product formula (XI)
# Text: The improved hydrolytic stability of the iodonium salts of the invention containing urethane groups may best be shown in comparison with the iodonium salt with the formula (XVI), containing Si—O—C bonds (see German Patent Application 19901531.7). [drawing 19]
# Indicated is the time to the formation of visible precipitates or crystals of the hydrolytic cleavage product with the formula (XI): […]
# Solubility in toluene = format: physicochemical
# Text: The solubility of the iodonium salts of the invention was compared with the solubility of the hydroxyl-bearing iodonium salts.
# [2] = Tests relating to cationic photopolymerization (UV curing of coating)
# Text: In order to examine the activity of the compounds shown in Examples 1-4 in cationic photopolymerization, 98 parts of a cycloaliphatic epoxysilane having an epoxy value of 3.5% and a viscosity of 125 mPas were mixed with 2 parts of each photoinitiator.
# The mixtures were then applied to a standard OPP film (30 μm) using a pilot-scale coating machine equipped with a five-roll applicator unit. The application weight was 0.5-1 g/m^2. The coatings were subsequently cured with a microwave-excited UV lamp (Fusion, 120 W/cm) at a web speed of 20 m/min.
# Directly following passage under the UV lamp, it was determined whether the coatings have cured to a film which is no longer tacky.
# [3] = Miscibility with organopolysiloxanes containing epoxy groups; format: physicochemical
smiles,measurement,setting,value
CCCCCCCCCCCCC(COc1ccc([I+]c2ccccc2)cc1)O[Si](C)(C)C (stereo not drawn) [Formula (XVI)],Stability in 1-butanol (50% w/w),[1]; 50% w/w in 1-butanol,2 days
same,Stability in toluene (50% w/w),[1]; 50% w/w in toluene,21 days
CCCCCCCCCCCCC(COc1ccc([I+]c2ccccc2)cc1)OC(=O)Nc1cccc(C(F)(F)F)c1 (stereo not drawn) [Formula (VII)],solubility in toluol,Solubility in toluene,unrestricted solubility
CCCCCCCCCCCCC(O)COc1ccc([I+]c2ccccc2)cc1 (stereo not drawn) [Formula (VIII)],Appearance of the mixture,"[2]; 2 parts photoinitiator in 98 parts cycloaliphatic epoxysilane (epoxy value 3.5%, 125 mPas)","cloudy,"
same,Curing after the UV lamp,"[2]; 2 parts photoinitiator, 0.5-1 g/m^2 on OPP film, UV lamp 120 W/cm, web speed 20 m/min, judged directly after lamp",unsatisfactory;
same,solubility in toluol,Solubility in toluene,insoluble
same,miscibility with organopolysiloxanes containing epoxy groups,[3],no miscibility
CCCCCCCCCCCCC(O)COc1ccc([I+]c2ccccc2)cc1 (stereo not drawn) [Formula (XI)],melting point,,91 °C
same,Solubility in toluene,Solubility in toluene,insoluble
